Each structure is given as a SMILES string.

Take `Oc1cccc(OCC(O)CNCc2ccc3c(c2)OCO3)c1` (stereo not shown) [Compound 1e, N-((1,3-Benzodioxol-5-yl)methyl)-2-hydroxy-3-(3-hydroxyphenoxy)propylamine]: the melting point lay within 230 to 231 °C.

For the origin of these results see patent US6890955B2, “Aryloxypropanolamine derivatives, method of preparation and applications thereof” (Virbac SA, priority 1996, dated 2005).
